{"source": "paper PMC10517971", "about": "“An inverse agonist of orphan receptor GPR61 acts by a G protein-competitive allosteric mechanism” (Nature Communications, 2023)", "key": {"[1]": {"biological_target": "T1, human GPR101 (Homo sapiens, UniProt Q96P66)", "T1 construct": "expressed in transfected cells", "T1 sequence (Q96P66 whole entry)": "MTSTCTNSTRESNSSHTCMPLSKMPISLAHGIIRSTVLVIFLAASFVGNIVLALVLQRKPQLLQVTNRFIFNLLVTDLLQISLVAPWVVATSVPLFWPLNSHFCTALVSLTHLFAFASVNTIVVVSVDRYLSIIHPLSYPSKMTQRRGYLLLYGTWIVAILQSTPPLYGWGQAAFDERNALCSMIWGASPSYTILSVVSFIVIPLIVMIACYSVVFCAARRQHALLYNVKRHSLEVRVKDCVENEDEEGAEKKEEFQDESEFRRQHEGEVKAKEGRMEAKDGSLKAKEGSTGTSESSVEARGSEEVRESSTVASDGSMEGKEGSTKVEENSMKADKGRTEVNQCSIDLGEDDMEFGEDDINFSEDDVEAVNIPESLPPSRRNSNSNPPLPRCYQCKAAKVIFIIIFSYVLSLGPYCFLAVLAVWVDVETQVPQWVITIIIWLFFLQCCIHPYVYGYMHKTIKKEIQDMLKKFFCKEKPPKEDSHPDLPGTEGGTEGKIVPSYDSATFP", "assay": "Functional cAMP assay (HTRF), stable CHO TREx human GPR101 cells", "type": "cell-based", "conditions": "Supplementary Table 2", "experimental": "A homogeneous Time-Resolved Fluorescence (HTRF) assay (Perkin Elmer, Dynamic2 kit #) was used to assess receptor basal and inverse agonist activity at human GPR61, GPR62, and GPR101. For routine inverse agonist screening frozen CHO TREx human GPR61, GPR62 and GPR101 cells were used. Cells were thawed, resuspended in complete assay media (DMEM F-12, 10% HI FBS, 100 μg/mL Normocin, 700 μg/mL Hygromycin B and 15 μg/mL Blasticidin) containing 1ug/ml doxycycline, plated in white 384 well plates (Corning, 3570) at a density of 750 cells/well (25 μl/ well) and cultured at 37 °C in an incubator overnight. For studies assessing basal and inverse agonist activity at human GPR61 mutants, CHO-K1 cells were transiently transfected using Fugene6, plated in white 384 well plates (7500 cells/well) and grown overnight at 37 °C, as described for receptor expression studies. […] Data were analyzed using the ratio of fluorescence intensity at 620 and 665 nm for each well, extrapolated from the cAMP standard curve to express data as nM cAMP for each well. […]"}, "[2]": {"biological_target": "hERG (Homo sapiens, UniProt Q12809)", "sequence (Q12809 whole entry)": "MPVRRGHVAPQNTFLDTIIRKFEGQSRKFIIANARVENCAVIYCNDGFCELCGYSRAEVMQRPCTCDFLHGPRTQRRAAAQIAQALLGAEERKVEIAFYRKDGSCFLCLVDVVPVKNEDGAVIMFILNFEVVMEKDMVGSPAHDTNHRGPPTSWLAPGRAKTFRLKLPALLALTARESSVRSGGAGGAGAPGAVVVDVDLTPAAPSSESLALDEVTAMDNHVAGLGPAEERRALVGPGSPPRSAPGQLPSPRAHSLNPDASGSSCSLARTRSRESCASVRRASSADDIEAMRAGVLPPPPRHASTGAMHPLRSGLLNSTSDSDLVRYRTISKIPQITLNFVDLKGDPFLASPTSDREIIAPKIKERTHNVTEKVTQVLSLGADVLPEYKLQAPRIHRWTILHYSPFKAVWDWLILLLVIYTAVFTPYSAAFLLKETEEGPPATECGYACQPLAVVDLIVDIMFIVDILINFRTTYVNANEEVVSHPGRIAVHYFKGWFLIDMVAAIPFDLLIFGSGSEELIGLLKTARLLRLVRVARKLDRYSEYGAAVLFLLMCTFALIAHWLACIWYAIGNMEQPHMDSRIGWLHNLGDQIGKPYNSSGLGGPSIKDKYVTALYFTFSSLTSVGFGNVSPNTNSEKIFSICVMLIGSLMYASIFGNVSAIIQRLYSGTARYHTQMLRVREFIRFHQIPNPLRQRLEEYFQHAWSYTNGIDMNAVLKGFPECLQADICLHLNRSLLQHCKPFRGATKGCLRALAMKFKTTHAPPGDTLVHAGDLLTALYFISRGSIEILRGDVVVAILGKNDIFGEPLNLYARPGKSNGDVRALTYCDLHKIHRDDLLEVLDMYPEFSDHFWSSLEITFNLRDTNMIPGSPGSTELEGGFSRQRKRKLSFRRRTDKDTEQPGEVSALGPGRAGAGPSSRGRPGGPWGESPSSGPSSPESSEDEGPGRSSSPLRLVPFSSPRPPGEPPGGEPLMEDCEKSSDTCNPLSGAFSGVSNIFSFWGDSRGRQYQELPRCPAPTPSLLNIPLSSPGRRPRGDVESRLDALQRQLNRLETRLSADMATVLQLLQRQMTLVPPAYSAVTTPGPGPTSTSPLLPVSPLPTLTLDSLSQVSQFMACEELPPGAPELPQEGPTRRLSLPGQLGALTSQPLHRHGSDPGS", "assay": "hERG ion channel profiling, Qube384 automated patch clamp (standard and extended protocol)", "type": "cell-based", "source_text": "105 hERG, Nav1.5 and Cav1.2 Ion Channel Profiling\n106 Ionic curr ents wer e evalu ated in the whole-cell con figuration using the Qube384 automated planar\n107 patch clamp platform (Sophion Bioscience A/S, Ballerup, Denmark). QChip 384X plates,\n108 containing 10 patch clamp holes per well, were used to maximize success rate, which was routinely\n110 For hERG experiments, the external solution was composed of (in mM): 132 NaCl, 4 KCl, 1.8\n111 CaCl2, 1.2 MgCl2, 10 HEPES, 11 Glucose, pH 7.4, 305 mOsM. […]\n121 The hERG current was elicited from a holding potential of - 80 mV by a voltage step to +40 mV\n122 for 500 ms, followed by a repolarizing ramp to - 80 mV at - 0.6 mV/ms. This pattern was repeated\n123 at a rate of 0.05 Hz. Peak hERG current was measured during the ramp. […]\n126 Nav1.5 current, from a holding potential of - 80 mV, a 200 ms prepulse to - 120 mV was used to\n127 homogenize channel inactivation, followed by a 40 ms step to a test potential of - 15 mV.\n128 Membrane potential was further depolarized to +40 mV for 200 ms to completely inactivate the\n129 peak Nav1.5 current, followed by a ramp from +40 mV to - 80 mV (-1.2 mV/ms). This voltage\n130 pattern was repeated at 0.1 Hz, with peak Nav1.5 defined as the maximum current during the step\n131 to - 15 mV. All studies were conducted at 23° C.\n132 Compounds were dissol ved and initially diluted in dimethyl sulfoxide (DMSO), with a final\n133 dilution in external solution to generate final working concent rations. The final DMSO\n134 concentration in all experiments was 0.33% (v/v).\n135 For all protocols three vehicle periods each lasting 5 minutes were applied to establish a stable\n136 baseline. For the standard protocol this was followed by the addition of increasing concentrations\n137 of test compound, with each exposure lasting 5 minutes. For the “extended” protocol following\n138 the three- vehi cle additional each well subsequentl y received a single concentration of compound.\n139 This application was repeated three times for each well, via a flowthrough addition where the\n140 solution was replaced wi th the same compound concentration with each addition. Each exposure\n142 Patch clamp data were analyzed using Assay Software 6.4.72 (Sophion Bioscience A/S, Ballerup,\n143 Denmark). Current amplitudes were determined by averaging the last 4 currents under each test\n144 condition. The percentage inhibition of each compound was determined by taking the ratio of\n145 current amplitude measured in the presence of various concentrations of the test compound\n146 (ICompound) versus the vehicle control current (IVehicle):\n148 A dose-response curve was generat ed and fit to the Hill equation by the Sophion Analyzer software\n149 to determine an IC50 value for each compound. The minimum and the slope of the fit were free […]"}}, "note": "Like-named read-outs stand apart in the source and are kept apart here."}
{"smiles": "CCOc1cc(C)nc(N(CCOC)S(=O)(=O)c2ccc(NCc3c(F)cncc3F)nc2OC)n1", "note": "[Compound 1]", "values": [{"measurement": "IC50", "setting": "[1]", "result": "> 29.7", "unit": "µM"}, {"measurement": "IC50", "setting": "[2]; extended protocol, 1st period, read-out: Ion Channel Extended Protocol IC50 (nM), Period 1st", "result": 36500, "unit": "nM"}, {"measurement": "IC50", "setting": "[2]; extended protocol, 2nd period, read-out: Ion Channel Extended Protocol IC50 (nM), Period 2nd", "result": 28000, "unit": "nM"}, {"measurement": "IC50", "setting": "[2]; extended protocol, 3rd period, read-out: Ion Channel Extended Protocol IC50 (nM), Period 3rd", "result": 18700, "unit": "nM"}, {"measurement": "IC50", "setting": "[2]; standard protocol, read-out: Patch IC50", "result": 52900, "unit": "nM"}]}
